# Measurements: PMC10141580, “Cyclic Dichalcogenides Extend the Reach of Bioreductive Prodrugs to Harness Thiol/Disulfide Oxidoreductases: Applications to seco-Duocarmycins Targeting the Thioredoxin System” (ACS Central Science, 2023)
# Read-outs that look alike come from different tables or passages of the source.
# Columns and labels:
# mouse = assay: Tolerability for repeated dose administration in vivo (summary)
# [1] = system: NCI-60 standardized human tumor cell line panel; assay: cells; format: cell-based; details: for NCI-60 screening: Log(RedIndex): log10 reductive index vs P-CC60; for GI50: Homo sapiens
structure (smiles),measurement,setting,value
COc1cc2cc(C(=O)N3C[C@@H](CCl)c4c3cc(OC(=O)N3CCN(C(=O)CCC(=O)N5CCN(C)CC5)[C@H]5CSSC[C@H]53)c3ccccc43)[nH]c2c(OC)c1OC [P-SS66C-CBI-TMI],remarks,mouse; repeated dose administration,well tolerated
same,well-tolerated dose,mouse; weekly or twice-weekly administration,3 mg/kg
same,"reductive activation index ratio NCI-60/ProliFiler, mean",[1]; 19 overlapping cell lines,1.8 fold
same,NCI-60 screening: Log(RedIndex),[1]; 786-0 (RE) cell line,1.22
same,NCI-60 screening: Log(RedIndex),[1]; A498 (RE) cell line,1.1
same,NCI-60 screening: Log(RedIndex),[1]; ACHN (RE) cell line,1.07
same,NCI-60 screening: Log(RedIndex),[1]; CAKI-1 (RE) cell line,0.94
same,NCI-60 screening: Log(RedIndex),[1]; DU-145 (PR) cell line,1.27
same,GI50,"[1]; 786-0, 786-0 (RE) cell line, log10 of GI50 in M, read-out: NCI-60 screening: Log(GI50) (converted)",105 nM
same,GI50,"[1]; 786-0, 786-0 (RE) cell line, read-out: NCI-60 screening: Raw GI50",110 nM
same,GI50,"[1]; 786-0, 786-0, read-out: GI50",110 nM
same,GI50,"[1]; A498, A498 (RE) cell line, log10 of GI50 in M, read-out: NCI-60 screening: Log(GI50) (converted)",219 nM
same,GI50,"[1]; A498, A498, read-out: GI50",220 nM
same,GI50,"[1]; A549, A549/ATCC, read-out: GI50",90 nM
same,GI50,"[1]; A549, cell line A549/ATCC (LC:A549/ATCC), TMI sheet, read-out: NCI-60 screening: Log(GI50) (converted)",89.1 nM
same,GI50,"[1]; ACHN, ACHN (RE) cell line, log10 of GI50 in M, read-out: NCI-60 screening: Log(GI50) (converted)",42.7 nM
same,GI50,"[1]; ACHN, read-out: GI50",42 nM
same,GI50,"[1]; BT-549, BT-549, read-out: GI50",140 nM
same,GI50,"[1]; BT-549, cell line BT-549 (BR:BT-549), TMI sheet, read-out: NCI-60 screening: Log(GI50) (converted)",145 nM
same,GI50,"[1]; BT-549, cell line BT-549 (BR:BT-549), TMI sheet, read-out: NCI-60 screening: Raw GI50",140 nM
same,GI50,"[1]; CAKI-1, CAKI-1 (RE) cell line, log10 of GI50 in M, read-out: NCI-60 screening: Log(GI50) (converted)",174 nM
same,GI50,"[1]; CAKI-1, Caki-1, read-out: GI50",170 nM
same,GI50,"[1]; CCRF-CEM, cell line CCRF-CEM (LE:CCRF-CEM), TMI sheet, read-out: NCI-60 screening: Log(GI50) (converted)",269 nM
same,GI50,"[1]; CCRF-CEM, cell line CCRF-CEM (LE:CCRF-CEM), TMI sheet, read-out: NCI-60 screening: Raw GI50",270 nM
same,GI50,"[1]; CCRF-CEM, read-out: GI50",270 nM
same,GI50,"[1]; COLO 205, Colo 205, read-out: GI50",140 nM
same,GI50,"[1]; COLO 205, cell line COLO 205 (CO:COLO 205), TMI sheet, read-out: NCI-60 screening: Log(GI50) (converted)",145 nM
same,GI50,"[1]; COLO 205, cell line COLO 205 (CO:COLO 205), TMI sheet, read-out: NCI-60 screening: Raw GI50",140 nM
same,GI50,"[1]; DU-145, DU-145 (PR) cell line, log10 of GI50 in M, read-out: NCI-60 screening: Log(GI50) (converted)",24.5 nM
same,GI50,"[1]; DU-145, DU-145, read-out: GI50",25 nM
same,GI50,"[1]; EKVX, cell line EKVX (LC:EKVX), TMI sheet, read-out: NCI-60 screening: Log(GI50) (converted)",209 nM
same,GI50,"[1]; EKVX, read-out: GI50",210 nM
same,GI50,"[1]; HCC 2998, HCC-2998, read-out: GI50",54 nM
same,GI50,"[1]; HCC 2998, cell line HCC-2998 (CO:HCC-2998), TMI sheet, read-out: NCI-60 screening: Log(GI50) (converted)",53.7 nM
same,GI50,"[1]; HCT-15, HCT-15, read-out: GI50",240 nM
same,GI50,"[1]; HCT-15, cell line HCT-15 (CO:HCT-15), TMI sheet, read-out: NCI-60 screening: Log(GI50) (converted)",245 nM
same,GI50,"[1]; HCT-15, cell line HCT-15 (CO:HCT-15), TMI sheet, read-out: NCI-60 screening: Raw GI50",240 nM
same,GI50,"[1]; HCT-116, HCT-116, read-out: GI50",150 nM
same,GI50,"[1]; HCT-116, cell line HCT-116 (CO:HCT-116), TMI sheet, read-out: NCI-60 screening: Log(GI50) (converted)",155 nM
same,GI50,"[1]; HCT-116, cell line HCT-116 (CO:HCT-116), TMI sheet, read-out: NCI-60 screening: Raw GI50",150 nM
same,GI50,"[1]; HL-60, HL-60(TB), read-out: GI50",48 nM
same,GI50,"[1]; HL-60, cell line HL-60(TB) (LE:HL-60(TB)), TMI sheet, read-out: NCI-60 screening: Log(GI50) (converted)",47.9 nM
same,GI50,"[1]; HOP-62, HOP-62, read-out: GI50",41 nM
same,GI50,"[1]; HOP-62, cell line HOP-62 (LC:HOP-62), TMI sheet, read-out: NCI-60 screening: Log(GI50) (converted)",41.7 nM
same,GI50,"[1]; HOP-92, HOP-92, read-out: GI50",180 nM
same,GI50,"[1]; HOP-92, cell line HOP-92 (LC:HOP-92), TMI sheet, read-out: NCI-60 screening: Log(GI50) (converted)",178 nM
same,GI50,"[1]; HT-29, HT29, read-out: GI50",140 nM
same,GI50,"[1]; HT-29, cell line HT29 (CO:HT29), TMI sheet, read-out: NCI-60 screening: Log(GI50) (converted)",141 nM
same,GI50,"[1]; HT-29, cell line HT29 (CO:HT29), TMI sheet, read-out: NCI-60 screening: Raw GI50",140 nM
same,GI50,"[1]; Hs-578T, read-out: GI50",290 nM
same,GI50,"[1]; Hs-578T, read-out: NCI-60 screening: Log(GI50) (converted)",295 nM
same,GI50,"[1]; IGROV-1, IGROV1 (OV) cell line, log10 of GI50 in M, read-out: NCI-60 screening: Log(GI50) (converted)",200 nM
same,GI50,"[1]; IGROV-1, IGROV1, read-out: GI50",200 nM
same,GI50,"[1]; K562, K-562, read-out: GI50",89 nM
same,GI50,"[1]; K562, cell line K-562 (LE:K-562), TMI sheet, read-out: NCI-60 screening: Log(GI50) (converted)",89.1 nM
same,GI50,"[1]; KM12, KM12, read-out: GI50",130 nM
same,GI50,"[1]; KM12, cell line KM12 (CO:KM12), TMI sheet, read-out: NCI-60 screening: Log(GI50) (converted)",132 nM
same,GI50,"[1]; KM12, cell line KM12 (CO:KM12), TMI sheet, read-out: NCI-60 screening: Raw GI50",130 nM
same,GI50,"[1]; LOX IMVI, cell line LOX IMVI (ME:LOX IMVI), TMI sheet, read-out: NCI-60 screening: Log(GI50) (converted)",69.2 nM
same,GI50,"[1]; LOX IMVI, read-out: GI50",69 nM
same,GI50,"[1]; M14, M14, read-out: GI50",120 nM
same,GI50,"[1]; MCF7, MCF7, read-out: GI50",15 nM
same,GI50,"[1]; MCF7, cell line MCF7 (BR:MCF7), TMI sheet, read-out: NCI-60 screening: Log(GI50) (converted)",14.8 nM
same,GI50,"[1]; MDA-MB-435, MDA-MB-435, read-out: GI50",150 nM
same,GI50,"[1]; MDA-MB-435, cell line MDA-MB-435 (ME:MDA-MB-435), TMI sheet, read-out: NCI-60 screening: Log(GI50) (converted)",148 nM
same,GI50,"[1]; MDA-MB-435, cell line MDA-MB-435 (ME:MDA-MB-435), TMI sheet, read-out: NCI-60 screening: Raw GI50",150 nM
same,GI50,"[1]; MDA-MB-468, MDA-MB-468, read-out: GI50",37 nM
same,GI50,"[1]; MOLT-4, MOLT-4, read-out: GI50",63 nM
same,GI50,"[1]; MOLT-4, cell line MOLT-4 (LE:MOLT-4), TMI sheet, read-out: NCI-60 screening: Log(GI50) (converted)",63.1 nM
same,GI50,"[1]; Malme-3M, cell line MALME-3M (ME:MALME-3M), TMI sheet, read-out: NCI-60 screening: Log(GI50) (converted)",135 nM
same,GI50,"[1]; Malme-3M, cell line MALME-3M (ME:MALME-3M), TMI sheet, read-out: NCI-60 screening: Raw GI50",130 nM
same,GI50,"[1]; Malme-3M, read-out: GI50",130 nM
same,GI50,"[1]; NCI-H23, NCI-H23, read-out: GI50",19 nM
same,GI50,"[1]; NCI-H23, cell line NCI-H23 (LC:NCI-H23), TMI sheet, read-out: NCI-60 screening: Log(GI50) (converted)",18.6 nM
same,GI50,"[1]; NCI-H23, cell line NCI-H23 (LC:NCI-H23), TMI sheet, read-out: NCI-60 screening: Raw GI50",19 nM
same,GI50,"[1]; NCI-H226, NCI-H226, read-out: GI50",240 nM
same,GI50,"[1]; NCI-H226, cell line NCI-H226 (LC:NCI-H226), TMI sheet, read-out: NCI-60 screening: Log(GI50) (converted)",245 nM
same,GI50,"[1]; NCI-H226, cell line NCI-H226 (LC:NCI-H226), TMI sheet, read-out: NCI-60 screening: Raw GI50",240 nM
same,GI50,"[1]; NCI-H322M, read-out: GI50",50 nM
same,GI50,"[1]; NCI-H322M, read-out: NCI-60 screening: Log(GI50) (converted)",50.1 nM
same,GI50,"[1]; NCI-H460, NCI-H460 (LC) cell line, log10 of GI50 in M, read-out: NCI-60 screening: Log(GI50) (converted)",22.4 nM
same,GI50,"[1]; NCI-H460, NCI-H460, read-out: GI50",22 nM
same,GI50,"[1]; NCI-H522, NCI-H522 (LC) cell line, log10 of GI50 in M, read-out: NCI-60 screening: Log(GI50) (converted)",55 nM
same,GI50,"[1]; NCI-H522, NCI-H522, read-out: GI50",56 nM
same,GI50,"[1]; OVCAR-3, OVCAR-3 (OV) cell line, log10 of GI50 in M, read-out: NCI-60 screening: Log(GI50) (converted)",145 nM
same,GI50,"[1]; OVCAR-3, OVCAR-3 (OV) cell line, read-out: NCI-60 screening: Raw GI50",140 nM
same,GI50,"[1]; OVCAR-3, OVCAR-3, read-out: GI50",140 nM
same,GI50,"[1]; OVCAR-4, OVCAR-4 (OV) cell line, log10 of GI50 in M, read-out: NCI-60 screening: Log(GI50) (converted)",195 nM
same,GI50,"[1]; OVCAR-4, OVCAR-4, read-out: GI50",190 nM
same,GI50,"[1]; OVCAR-5, OVCAR-5 (OV) cell line, log10 of GI50 in M, read-out: NCI-60 screening: Log(GI50) (converted)",257 nM
same,GI50,"[1]; OVCAR-5, OVCAR-5, read-out: GI50",250 nM
same,GI50,"[1]; OVCAR-8, OVCAR-8 (OV) cell line, log10 of GI50 in M, read-out: NCI-60 screening: Log(GI50) (converted)",91.2 nM
same,GI50,"[1]; OVCAR-8, OVCAR-8, read-out: GI50",92 nM
same,GI50,"[1]; PC-3 (PR) cell line, log10 of GI50 in M, read-out: NCI-60 screening: Log(GI50) (converted)",479 nM
